From the NIST ThermoML archive (doi:10.1016/j.jct.2018.07.026)

Columns and labels:
[1] = Molar enthalpy of transition or fusion; conditions: Crystal 1; DSC
[2] = molar heat capacity at constant pressure; conditions: 78.8 kPa, Crystal, DSC

O=C(O)c1ccc([N+](=O)[O-])cc1C(=O)O [4-nitrophthalic acid]
Conditions | mass density [kg/m3]
298.15 K, 101.33 kPa, Crystal, Pycnometric method | 1647

Conditions | Molar enthalpy of transition or fusion [kcal/mol] | Normal melting temperature [°C]
Crystal 1, DTA | – | 167
[1] | 8.84 | –

[2]
Conditions | molar heat capacity at constant pressure [J/K/mol]
295.15 K | 229.53
296.15 K | 230.9
297.15 K | 232.06
298.15 K | 233.01
299.15 K | 233.22
300.15 K | 234.59
301.15 K | 236.28
302.15 K | 237.02
303.15 K | 237.97
304.15 K | 239.13
305.15 K | 239.66
306.15 K | 240.19
307.15 K | 240.5
308.15 K | 240.61
309.15 K | 240.93
310.15 K | 242.51
311.15 K | 241.24
312.15 K | 242.62
313.15 K | 243.57
314.15 K | 244.09
315.15 K | 244.83
316.15 K | 245.36
317.15 K | 246.1
318.15 K | 246.2
319.15 K | 246.94
320.15 K | 248
321.15 K | 248.74
322.15 K | 249.37
323.15 K | 250.22
324.15 K | 250.95
325.15 K | 251.69
326.15 K | 252.22
327.15 K | 252.64
328.15 K | 253.38
329.15 K | 254.02
330.15 K | 254.54
331.15 K | 255.07
332.15 K | 255.71
333.15 K | 256.23
334.15 K | 256.76
335.15 K | 257.5
336.15 K | 258.34
337.15 K | 256.97
338.15 K | 258.45
339.15 K | 258.98
340.15 K | 259.4
341.15 K | 259.93
342.15 K | 260.67
343.15 K | 261.41
344.15 K | 261.72
345.15 K | 262.25
346.15 K | 262.78
347.15 K | 263.52
348.15 K | 263.94
349.15 K | 264.47
350.15 K | 264.99
351.15 K | 265.42
352.15 K | 266.05
353.15 K | 266.26
354.15 K | 266.79
355.15 K | 267.32
356.15 K | 267.74
357.15 K | 267.95
358.15 K | 268.58
359.15 K | 268.9
360.15 K | 269.64
361.15 K | 269.85
362.15 K | 270.27
363.15 K | 270.59
364.15 K | 271.12
365.15 K | 271.86
366.15 K | 272.17
367.15 K | 272.81
368.15 K | 273.23
369.15 K | 274.07
370.15 K | 274.39
371.15 K | 275.02
372.15 K | 275.23
373.15 K | 275.66
374.15 K | 276.29
375.15 K | 276.61
376.15 K | 277.03
377.15 K | 277.56
378.15 K | 278.51
379.15 K | 279.03
380.15 K | 279.56
381.15 K | 280.3
382.15 K | 280.83
383.15 K | 281.57
384.15 K | 282.1
385.15 K | 282.84
386.15 K | 283.26
387.15 K | 284.21
388.15 K | 284.95
389.15 K | 285.37
390.15 K | 286.64
391.15 K | 287.48
392.15 K | 288.22
393.15 K | 288.32
394.15 K | 289.27
395.15 K | 290.33
